Drawing on patent US20210315893A1 (Galapagos NV, priority 2017, published 2021), this text covers EC50 for 15 molecules.

Assay [1] deals with T1, human GPCR sphingosine 1-phosphate receptor 5 (Homo sapiens, UniProt Q9H228).
T1 construct: host or cells: CHO
Briefly: S1PR5 selectivity Ca2+ flux assay (antagonist readout). The assay is classed as cell-based. Particulars: CHO cells overexpressing human S1PR5 and Gq, agonist at EC80 (20 nM), read-out: S1P5 EC50 (nM), S1P5 antagonist EC50. The source says: To evaluate the selectivity of the compounds for S1PR2 over S1PR1 and S1PR5, asimilar assay set upas described above for theS1PR2 calcium flux assays waspeformed: CHO cells stably overexpressing human GPCR sphingosine 1-phosphate receptor 1 and Gq protein (Euroscreen, FAST-0197A) or overexpressing human GPCR sphingosine 1-phosphate receptorS5 and Gq protein were used (Perkin Elmer, ES-593-A). In case of the S1PR5 assay triggering was done with an SPR5 specific agonist instead of with S1P (Hobson et al., 2015).
50 μL of Chinese hamster ovary (CHO) cells stably overexpressing human S1PR1 or S1PR5 are seeded in 384 well sterile microplates (7,500 cells/well or 10,000 cells/well respectively) and are incubated overnight at 37° C. under 5% CO2. Cells are subsequently washed twice with 25 μL/well of starvation medium (F-12 Ham's medium containing 0.1% fatty acid free bovine serum albumin (FAF BSA)). After one h starvation at 37° C., 5% CO2, cells are loaded with 25 μL of Fluo 8 dye diluted in Hank's balanced salt solution (HBSS) with 20 mM Hepes complemented with 5 mM of probenecid following the recommendations of the manufacturer (one h at 37° C., 5% CO2). Dilution series of compounds are prepared in HBSS buffer with 20 mM Hepes and 0.1% BSA (FAF). 10 μL of diluted compound is added to the cells using the FDSS/pCELL and intracellular calcium changes are measured immediately by recording fluorescence during 3 min (agonist readout). The ratio of maximal signal over background before compound injection is used to determine compound response.
After an incubation of 15 min at 37° C., following the agonist readout, the plates are transferred to the FDSS/pCELL reader. Cells are stimulated with 10 μL of EC80 concentration of S1P (6 nM for S1P1 and 20 nM for S1P5) and intracellular calcium changes are measured immediately by recording fluorescence during three min (antagonist readout). The ratio of maximal signal over background before S1P injection was used to determine the inhibitory effect ofthe compound.
Raw data obtained in each experiment (ratio of maximal signal over background for calcium mobilization assays) were normalized in percentage of activation (agonist mode) or inhibition (antagonist mode) using positive and negative experiment controls. Each individual plate quality was assessed by evaluation of Z′ factor calculated with raw data using the following equation
Y=bottom+(top−bottom)/(1+(10^(Log IC50−X)*Hillslope)) where X is the logarithm of the concentration of the compound

Assay [2] deals with HFL-1 cells. Briefly: IL-8 production assay (S1P induced IL-8). Conditions: Homo sapiens, HFL1; S1P (1 μM) induced IL-8 in HFL-1 cells, starvation medium without HSA; read-out: IL8 EC50. Type of assay: cell-based. Summed up: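 HFL-1 human fetal lung fibroblasts were starved in F12K/1% FBS, then given compound for 1 h (10-point, 1/3 dilution, 30 μM top, 0.3% DMSO final). S1P was added at 1 μM final for 16–24 h at 37 °C, and secreted IL-8 in supernatant quantified by ELISA.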

The test system of assay [3] is HFL-1 cells. Briefly: IL8 assay in the presence of Human Serum Albumin. Conditions: HFL1, read-out: HSA IL8 EC50.
In assay [4] the target is T2, human GPCR sphingosine 1-phosphate receptor 1 (Homo sapiens, UniProt P21453).
T2 construct: host or cells: CHO
Briefly: S1PR1 selectivity Ca2+ flux assay (antagonist readout). The assay is classed as cell-based. Particulars: antagonist readout, CHO cells overexpressing human S1PR1 and Gq, S1P at EC80 (6 nM); read-out: S1P1 EC50 (nM), S1P1 antagonist EC50. Summed up:
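CHO cells stably overexpressing human S1PR1, starved 1 h in 0.1% FAF BSA medium, then Fluo 8 dye-loaded. Compound added, then after 15 min at 37 °C, S1P-evoked Ca2+ flux recorded. Maximal signal/background ratio normalized to controls as % inhibition; IC50 from four-parameter logistic fit.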

Assay [5] has as its target T3, human GPCR sphingosine 1-phosphate receptor 2 (Homo sapiens, UniProt O95136).
T3 construct: host or cells: CHO
Briefly: S1PR2 antagonist Ca2+ flux assay. Conditions: antagonist mode, CHO-S1PR2 cells, S1P at EC80, Ca2+ fluorescence; read-out: S1P2 EC50 (nM), S1P2 antagonist EC50. The assay is classed as cell-based. Summed up:
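CHO cells stably expressing human S1PR2, serum-starved 1 h, Fluo8-loaded; compound-evoked Ca2+ fluorescence read 3 min (agonist mode), then after 15 min S1P at EC80 added and read 3 min (antagonist mode). Max/baseline fluorescence ratios normalised to vehicle and S1P EC100 or EC50 controls; EC50 derived.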

T1 sequence (Q9H228 whole entry): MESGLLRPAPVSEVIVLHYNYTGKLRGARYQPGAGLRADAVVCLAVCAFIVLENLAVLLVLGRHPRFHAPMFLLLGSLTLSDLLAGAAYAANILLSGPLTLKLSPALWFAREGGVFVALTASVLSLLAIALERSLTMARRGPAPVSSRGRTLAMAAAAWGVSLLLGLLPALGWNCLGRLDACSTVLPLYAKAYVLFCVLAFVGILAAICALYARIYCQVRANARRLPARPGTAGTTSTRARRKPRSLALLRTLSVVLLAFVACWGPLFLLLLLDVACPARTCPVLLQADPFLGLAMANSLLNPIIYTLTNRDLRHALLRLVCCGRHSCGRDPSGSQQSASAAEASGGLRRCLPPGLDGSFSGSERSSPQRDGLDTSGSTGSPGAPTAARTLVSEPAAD
T2 sequence (P21453 whole entry): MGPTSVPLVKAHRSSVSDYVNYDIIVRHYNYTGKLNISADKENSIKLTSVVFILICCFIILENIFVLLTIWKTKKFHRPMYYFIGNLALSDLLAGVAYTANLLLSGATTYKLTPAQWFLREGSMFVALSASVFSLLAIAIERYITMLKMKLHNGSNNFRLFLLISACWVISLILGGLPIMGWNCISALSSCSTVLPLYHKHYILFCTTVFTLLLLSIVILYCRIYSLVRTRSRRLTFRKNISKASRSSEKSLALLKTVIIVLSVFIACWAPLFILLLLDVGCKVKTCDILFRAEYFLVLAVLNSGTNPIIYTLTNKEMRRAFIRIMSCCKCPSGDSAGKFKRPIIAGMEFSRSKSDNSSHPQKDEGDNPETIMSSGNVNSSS
T3 sequence (O95136 whole entry): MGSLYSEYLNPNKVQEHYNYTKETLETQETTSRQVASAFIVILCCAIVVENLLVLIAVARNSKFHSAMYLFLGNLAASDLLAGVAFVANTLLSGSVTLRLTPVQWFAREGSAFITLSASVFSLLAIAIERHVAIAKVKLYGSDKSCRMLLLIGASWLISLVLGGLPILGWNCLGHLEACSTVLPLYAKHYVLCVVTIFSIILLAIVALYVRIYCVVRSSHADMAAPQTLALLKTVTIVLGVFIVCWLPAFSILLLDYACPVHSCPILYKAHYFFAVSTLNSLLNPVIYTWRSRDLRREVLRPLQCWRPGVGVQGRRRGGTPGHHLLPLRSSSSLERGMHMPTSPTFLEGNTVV

Consider `CC(C)(C(=O)O)c1nn(Cc2cn3cc(OCC4CC4)c(Cl)cc3n2)c2ccccc2c1=O` [Compound 88, 2-[1-[[7-chloro-6-(cyclopropylmethoxy)imidazo[1,2-a]pyridin-2-yl]methyl]-4-oxo-cinnolin-3-yl]-2-methyl-propanoic acid], for which the EC50 was 19800 nM in assay [1], 0.0298 µM in assay [2], 0.41 µM in assay [3] and at least 19800 nM in assay [4].
As for `O=C(O)Cc1nn(Cc2cn3cc(OCC4CC4)c(Cl)cc3n2)c2ccccc2c1=O` [Compound 89, 2-[1-[[7-chloro-6-(cyclopropylmethoxy)imidazo[1,2-a]pyridin-2-yl]methyl]-4-oxo-cinnolin-3-yl]acetic acid], the EC50 was 6610 nM in assay [1], 0.0057 µM in assay [2], 0.0645 µM in assay [3] and at least 19800 nM in assay [4].
The corresponding values for `COC(C(=O)O)c1nn(Cc2cn3cc(OCC4CC4)c(Cl)cc3n2)c2ccccc2c1=O` (stereo not shown) [Compound 94, 2-[1-[[7-chloro-6-(cyclopropylmethoxy)imidazo[1,2-a]pyridin-2-yl]methyl]-4-oxo-cinnolin-3-yl]-2-methoxy-acetic acid] are 19800 nM, 0.105 µM, 0.267 µM and at least 19800 nM.
The corresponding values for `O=C(O)C1(c2nn(Cc3cn4cc(OCC5CC5)c(Cl)cc4n3)c3ccccc3c2=O)CC1` [Compound 96, 1-[1-[[7-chloro-6-(cyclopropylmethoxy)imidazo[1,2-a]pyridin-2-yl]methyl]-4-oxo-cinnolin-3-yl]cyclopropanecarboxylic acid] are 19800 nM, 0.03 µM, 0.425 µM and at least 19800 nM.
Consider `CCC(C(=O)O)c1nn(Cc2cn3cc(OCC4CC4)c(Cl)cc3n2)c2ccccc2c1=O` (stereo not shown) [Compound 98, 2-[1-[[7-chloro-6-(cyclopropylmethoxy)imidazo[1,2-a]pyridin-2-yl]methyl]-4-oxo-cinnolin-3-yl]butanoic acid], for which the concentration for a half-maximal effect (EC50) in assay [1] is 19800 nM; in assay [2], 0.00569 µM; in assay [3] it was 0.0269 µM; in assay [4], at least 19800 nM.
The corresponding values for `O=C(O)Cn1nc(Cn2cc3cc(OCC4CC4)c(Cl)cc3n2)c2ccccc2c1=O` [Compound 114, 2-[4-[[6-chloro-5-(cyclopropylmethoxy)indazol-2-yl]methyl]-1-oxo-phthalazin-2-yl]acetic acid] are 627 nM, 0.0324 µM, 1.67 µM and at least 19900 nM.
With `O=C(O)Cn1nc(Cc2nc3cc(Cl)c(OCC(F)F)cc3[nH]2)c2ccccc2c1=O` [Compound 118, 2-[4-[[5-chloro-6-(2,2-difluoroethoxy)-1H-benzimidazol-2-yl]methyl]-1-oxo-phthalazin-2-yl]acetic acid], the EC50 in assay [1] was 19800 nM; in assay [2] it was 0.0255 µM; in assay [3] it was 0.0952 µM; in assay [4] it was at least 19800 nM.
Regarding `O=C(O)Cn1nc(Cc2nc3cc(OCC4CC4)c(C(F)(F)F)cc3[nH]2)c2ccccc2c1=O` [Compound 123, 2-[4-[[5-(cyclopropylmethoxy)-6-(trifluoromethyl)-1H-benzimidazol-2-yl]methyl]-1-oxo-phthalazin-2-yl]acetic acid], the EC50 in assay [1] was 19800 nM; in assay [2], 0.00176 µM; in assay [3], 0.0259 µM; in assay [4], 1840 nM.
The like results for `O=C(O)Cn1nc(Cc2nc3cc(OCC4CC4)c(F)cc3[nH]2)c2ccccc2c1=O` [Compound 124, 2-[4-[[5-(cyclopropylmethoxy)-6-fluoro-1H-benzimidazol-2-yl]methyl]-1-oxo-phthalazin-2-yl]acetic acid] were, in that order, 19800 nM, 0.0666 µM, 0.446 µM and 13200 nM.
As for `N#Cc1cc2nc(Cc3nn(CC(=O)N4CCOCC4)c(=O)c4ccccc34)[nH]c2cc1OCC(F)F` [Compound 171, 6-(2,2-difluoroethoxy)-2-[[3-(2-morpholino-2-oxo-ethyl)-4-oxo-phthalazin-1-yl]methyl]-1H-benzimidazole-5-carbonitrile], the EC50 in assay [5] is 30 nM; in assay [1], 19800 nM; in assay [2], 0.0231 µM; in assay [3], 0.0449 µM; in assay [4], at least 19800 nM.
Turning to `CC(C(=O)O)c1nn(Cc2cn3cc(OCC4CC4)c(Cl)cc3n2)c2ccccc2c1=O` (stereo not shown) [compound 4, 2-[1-[[7-chloro-6-(cyclopropyl-methoxy)imidazo-[1,2-a]pyridin-2-yl]methyl]-4-oxo-cinnolin-3-yl]propanoic acid], the EC50 was 19800 nM in assay [1], 0.00164 µM in assay [2], 0.0192 µM in assay [3] and at least 19800 nM in assay [4].
The like results for `C[C@H](C(=O)O)n1nc(Cn2cc3cc(OCC4CC4)c(Cl)cc3n2)c2ccccc2c1=O` [compound 17, ((2R)-2-[4-[[6-chloro-5-(cyclo-propylmethoxy)-indazol-2-yl]-methyl]-1-oxo-phthalazin-2-yl]-propanoic acid)] were, in that order, 19800 nM, 0.00302 µM, 0.211 µM and 8810 nM.
Take `C[C@@H](C(=O)O)n1nc(Cn2cc3cc(OCC4CC4)c(Cl)cc3n2)c2ccccc2c1=O` [compound 18, (2S)-2-[4-[[6-chloro-5-(cyclo-propylmethoxy)-indazol-2-yl]-methyl]-1-oxo-phthalazin-2-yl]propanoic acid]: the EC50 was 19800 nM in assay [1], 0.21 µM in assay [2], 22.5 µM in assay [3] and at least 19800 nM in assay [4].
For `C[C@H](C(=O)O)c1nn(Cc2cn3cc(OCC4CC4)c(Cl)cc3n2)c2ccccc2c1=O` [compound 19, (2S)-2-[1-[[7-chloro-6-(cyclo-propylmethoxy)-imidazo[1,2-a]-pyridin-2-yl]-methyl]-4-oxo-cinnolin-3-yl]-propanoic acid], the EC50 is 19900 nM in assay [1], 0.00129 µM in assay [2], 0.0182 µM in assay [3] and 19900 nM in assay [4].
As for `C[C@@H](C(=O)O)c1nn(Cc2cn3cc(OCC4CC4)c(Cl)cc3n2)c2ccccc2c1=O` [compound 20, (2R)-2-[1-[[7-chloro-6-(cyclo-propylmethoxy)-imidazo[1,2-a]pyridin-2-yl]-methyl]-4-oxo-cinnolin-3-yl]-propanoic acid], the EC50 in assay [1] is 19800 nM; in assay [2], 0.134 µM; in assay [3], 3.33 µM; in assay [4] it was at least 19800 nM.
